Data as given in ChEMBL document CHEMBL1144377, “Oximinoarylsulfonamides as potent HIV protease inhibitors” (Bioorg Med Chem Lett, 2005).

Experiments:
[1] = test system: Human immunodeficiency virus 1; test: Inhibitory concentration against resistant (A17) human immunodeficiency virus; type: functional, organism-based
[2] = test system: Human immunodeficiency virus 1; test: Inhibitory concentration against wild type human immunodeficiency virus; type: functional, organism-based

Compound	IC50 [1]	IC50 [2]
CC(C)c1nc(CN(C)C(=O)N[C@H](C(=O)N[C@@H](Cc2ccccc2)C[C@H](O)[C@H](Cc2ccccc2)NC(=O)OCc2cncs2)C(C)C)cs1 [RITONAVIR]	3440 nM	–
CC(=O)c1ccc(S(=O)(=O)N(CC(C)C)C[C@@H](O)[C@H](Cc2ccccc2)NC(=O)[C@H](C(C)C)N2CCN(Cc3csc(C)n3)C2=O)cc1	680 nM	39 nM
Cc1nc(CN2CCN([C@H](C(=O)N[C@@H](Cc3ccccc3)[C@H](O)CN(CC(C)C)S(=O)(=O)c3ccc(C(=N)NO)cc3)C(C)C)C2=O)cs1	523 nM	143 nM
Cc1nc(CN2CCN([C@H](C(=O)N[C@@H](Cc3ccccc3)[C@H](O)CN(CC(C)C)S(=O)(=O)c3ccc(C=O)cc3)C(C)C)C2=O)cs1	206 nM	51 nM
C=Cc1ccc(S(=O)(=O)N(CC(C)C)C[C@@H](O)[C@H](Cc2ccccc2)NC(=O)[C@H](C(C)C)N2CCN(Cc3csc(C)n3)C2=O)cc1	957 nM	101 nM
Cc1nc(CN2CCN([C@H](C(=O)N[C@@H](Cc3ccccc3)[C@H](O)CN(CC(C)C)S(=O)(=O)c3ccc(CO)cc3)C(C)C)C2=O)cs1	99 nM	61 nM
Cc1cccc(C)c1OCC(=O)N[C@@H](Cc1ccccc1)[C@@H](O)C[C@H](Cc1ccccc1)NC(=O)[C@H](C(C)C)N1CCCNC1=O [LOPINAVIR]	1240 nM	–
Cc1nc(CN2CCN([C@H](C(=O)N[C@@H](Cc3ccccc3)[C@H](O)CN(CC(C)C)S(=O)(=O)c3ccc(NC=O)cc3)C(C)C)C2=O)cs1	2410 nM	168 nM
CC(C)CN(C[C@@H](O)[C@H](Cc1ccccc1)NC(=O)O[C@H]1CCOC1)S(=O)(=O)c1ccc(N)cc1	3720 nM	109 nM
Cc1nc(CN2CCN([C@H](C(=O)N[C@@H](Cc3ccccc3)[C@H](O)CN(CC(C)C)S(=O)(=O)c3cccc(CO)c3)C(C)C)C2=O)cs1	910 nM	45 nM
Cc1nc(CN2CCN([C@H](C(=O)N[C@@H](Cc3ccccc3)[C@H](O)CN(CC(C)C)S(=O)(=O)c3ccc(/C=N\O)cc3)C(C)C)C2=O)cs1	31 nM	5 nM
Cc1nc(CN2CCN([C@H](C(=O)N[C@@H](Cc3ccccc3)[C@H](O)CN(CC(C)C)S(=O)(=O)c3cccc(/C=N\O)c3)C(C)C)C2=O)cs1	222 nM	16 nM
Cc1nc(CN2CCN([C@H](C(=O)N[C@@H](Cc3ccccc3)[C@H](O)CN(CC(C)C)S(=O)(=O)c3ccc(C(=O)O)cc3)C(C)C)C2=O)cs1	9440 nM	10000 nM
Cc1nc(CN2CCN([C@H](C(=O)N[C@@H](Cc3ccccc3)[C@H](O)CN(CC(C)C)S(=O)(=O)c3ccc(C(N)=O)cc3)C(C)C)C2=O)cs1	944 nM	254 nM
Cc1nc(CN2CCN([C@H](C(=O)N[C@@H](Cc3ccccc3)[C@H](O)CN(CC(C)C)S(=O)(=O)c3ccc(N)cc3)C(C)C)C2=O)cs1	311 nM	31 nM
CO/N=C\c1ccc(S(=O)(=O)N(CC(C)C)C[C@@H](O)[C@H](Cc2ccccc2)NC(=O)[C@H](C(C)C)N2CCN(Cc3csc(C)n3)C2=O)cc1	3010 nM	653 nM
CC(=O)Nc1ccc(S(=O)(=O)N(CC(C)C)C[C@@H](O)[C@H](Cc2ccccc2)NC(=O)[C@H](C(C)C)N2CCN(Cc3csc(C)n3)C2=O)cc1	1520 nM	312 nM
Cc1nc(CN2CCN([C@H](C(=O)N[C@@H](Cc3ccccc3)[C@H](O)CN(CC(C)C)S(=O)(=O)c3ccc(NS(C)(=O)=O)cc3)C(C)C)C2=O)cs1	10000 nM	1190 nM
Cc1nc(CN2CCN([C@H](C(=O)N[C@@H](Cc3ccccc3)[C@H](O)CN(CC(C)C)S(=O)(=O)c3ccc(C#N)cc3)C(C)C)C2=O)cs1	1170 nM	148 nM
